Data taken from US10660877B2 (BRISTOL-MYERS SQUIBB COMPANY, priority 2016, dated 2020).
pIC50: −log10 of the molar value. Where two headings read alike, the source gives them in different places.

Key:
human TLR7 = human TLR7 (Homo sapiens (Human), UniProt Q9NYK1); experiment: TLR7 inhibition reporter assay (HEK-Blue cells, SEAP reporter, gardiquimod stimulation); format: cell-based; conditions: HEK-Blue cells overexpressing human TLR7, gardiquimod 7.5 μM
human TLR8 = human TLR8 (Homo sapiens (Human), UniProt Q9NR97); experiment: TLR8 inhibition reporter assay (HEK-Blue cells, SEAP reporter, R848 stimulation);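 note: compounds tested from 0.05 nM to 50 µM, 22 h at 37 °C, SEAP measured with HEK-Blue Detection, inhibition relative to agonist plus DMSO versus a known inhibitor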
Sequence of human TLR8 (Q9NR97 27-1041): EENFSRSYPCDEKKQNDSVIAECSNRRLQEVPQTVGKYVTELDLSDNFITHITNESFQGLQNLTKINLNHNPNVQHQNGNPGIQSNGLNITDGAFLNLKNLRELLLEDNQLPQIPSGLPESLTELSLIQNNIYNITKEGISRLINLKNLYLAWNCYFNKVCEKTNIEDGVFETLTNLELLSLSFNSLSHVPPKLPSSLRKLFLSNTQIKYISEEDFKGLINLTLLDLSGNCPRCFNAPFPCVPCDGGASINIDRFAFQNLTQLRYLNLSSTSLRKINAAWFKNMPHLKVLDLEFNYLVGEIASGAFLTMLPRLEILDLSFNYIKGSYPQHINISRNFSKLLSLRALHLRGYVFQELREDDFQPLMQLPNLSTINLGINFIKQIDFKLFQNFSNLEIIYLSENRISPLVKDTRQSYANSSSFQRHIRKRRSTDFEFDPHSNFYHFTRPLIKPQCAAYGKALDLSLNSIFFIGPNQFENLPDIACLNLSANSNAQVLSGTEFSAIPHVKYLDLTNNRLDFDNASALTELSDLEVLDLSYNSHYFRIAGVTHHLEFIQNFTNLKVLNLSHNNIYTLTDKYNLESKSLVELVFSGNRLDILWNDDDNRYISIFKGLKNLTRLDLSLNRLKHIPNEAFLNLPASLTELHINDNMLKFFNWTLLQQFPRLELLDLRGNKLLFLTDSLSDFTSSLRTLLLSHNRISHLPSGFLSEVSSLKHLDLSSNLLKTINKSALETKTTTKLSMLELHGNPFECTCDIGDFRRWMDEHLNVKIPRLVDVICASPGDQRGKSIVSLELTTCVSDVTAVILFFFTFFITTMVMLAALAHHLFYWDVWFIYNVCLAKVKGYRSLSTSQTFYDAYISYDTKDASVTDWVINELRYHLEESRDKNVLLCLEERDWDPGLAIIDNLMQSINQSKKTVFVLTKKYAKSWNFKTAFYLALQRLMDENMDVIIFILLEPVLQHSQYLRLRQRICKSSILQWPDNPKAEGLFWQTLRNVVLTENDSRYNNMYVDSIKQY

human TLR9 = human TLR9 (Homo sapiens (Human), UniProt Q9NR96); experiment: TLR9 inhibition reporter assay (HEK-Blue cells, SEAP reporter, ODN2006 stimulation);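 note: compounds tested over 0.05 nM to 50 µM, 22 h incubation, inhibition taken as SEAP signal drop from agonist plus DMSO wells toward a known inhibitor control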
Sequence of human TLR9 (Q9NR96 26-1032): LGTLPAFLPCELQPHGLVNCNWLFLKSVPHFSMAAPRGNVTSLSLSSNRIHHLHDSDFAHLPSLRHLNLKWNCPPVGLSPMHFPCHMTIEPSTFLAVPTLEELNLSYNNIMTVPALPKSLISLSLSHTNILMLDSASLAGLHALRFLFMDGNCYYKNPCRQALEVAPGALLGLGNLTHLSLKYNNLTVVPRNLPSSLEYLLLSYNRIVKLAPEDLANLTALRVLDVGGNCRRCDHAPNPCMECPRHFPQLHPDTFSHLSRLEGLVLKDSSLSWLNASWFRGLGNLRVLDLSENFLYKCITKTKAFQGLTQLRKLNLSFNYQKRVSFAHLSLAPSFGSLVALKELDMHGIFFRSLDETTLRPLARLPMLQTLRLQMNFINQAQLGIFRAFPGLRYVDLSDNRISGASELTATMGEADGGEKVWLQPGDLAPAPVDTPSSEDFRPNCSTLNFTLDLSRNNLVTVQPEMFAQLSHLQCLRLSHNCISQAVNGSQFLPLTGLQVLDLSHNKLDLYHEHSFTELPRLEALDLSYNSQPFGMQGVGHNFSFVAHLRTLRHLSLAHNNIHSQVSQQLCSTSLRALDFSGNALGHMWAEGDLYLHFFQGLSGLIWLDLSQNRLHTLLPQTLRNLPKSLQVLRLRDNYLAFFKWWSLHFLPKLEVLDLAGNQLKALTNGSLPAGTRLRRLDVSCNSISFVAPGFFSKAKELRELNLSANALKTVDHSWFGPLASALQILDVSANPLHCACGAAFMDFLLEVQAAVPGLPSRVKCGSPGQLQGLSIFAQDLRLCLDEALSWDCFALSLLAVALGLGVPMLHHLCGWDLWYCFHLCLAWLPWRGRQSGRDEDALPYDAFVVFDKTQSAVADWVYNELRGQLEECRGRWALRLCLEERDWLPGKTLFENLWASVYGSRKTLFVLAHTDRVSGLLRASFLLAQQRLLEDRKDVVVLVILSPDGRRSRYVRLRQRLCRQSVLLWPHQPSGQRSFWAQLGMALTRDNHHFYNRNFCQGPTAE

[1] = read-out: TLR8 IC50, HEK-Blue cells overexpressing human TLR8, R848 15.9 μM
[2] = read-out: TLR9 IC50, HEK-Blue cells overexpressing human TLR9, ODN2006 5 nM

Sequence of human TLR7 (Q9NYK1 27-1049): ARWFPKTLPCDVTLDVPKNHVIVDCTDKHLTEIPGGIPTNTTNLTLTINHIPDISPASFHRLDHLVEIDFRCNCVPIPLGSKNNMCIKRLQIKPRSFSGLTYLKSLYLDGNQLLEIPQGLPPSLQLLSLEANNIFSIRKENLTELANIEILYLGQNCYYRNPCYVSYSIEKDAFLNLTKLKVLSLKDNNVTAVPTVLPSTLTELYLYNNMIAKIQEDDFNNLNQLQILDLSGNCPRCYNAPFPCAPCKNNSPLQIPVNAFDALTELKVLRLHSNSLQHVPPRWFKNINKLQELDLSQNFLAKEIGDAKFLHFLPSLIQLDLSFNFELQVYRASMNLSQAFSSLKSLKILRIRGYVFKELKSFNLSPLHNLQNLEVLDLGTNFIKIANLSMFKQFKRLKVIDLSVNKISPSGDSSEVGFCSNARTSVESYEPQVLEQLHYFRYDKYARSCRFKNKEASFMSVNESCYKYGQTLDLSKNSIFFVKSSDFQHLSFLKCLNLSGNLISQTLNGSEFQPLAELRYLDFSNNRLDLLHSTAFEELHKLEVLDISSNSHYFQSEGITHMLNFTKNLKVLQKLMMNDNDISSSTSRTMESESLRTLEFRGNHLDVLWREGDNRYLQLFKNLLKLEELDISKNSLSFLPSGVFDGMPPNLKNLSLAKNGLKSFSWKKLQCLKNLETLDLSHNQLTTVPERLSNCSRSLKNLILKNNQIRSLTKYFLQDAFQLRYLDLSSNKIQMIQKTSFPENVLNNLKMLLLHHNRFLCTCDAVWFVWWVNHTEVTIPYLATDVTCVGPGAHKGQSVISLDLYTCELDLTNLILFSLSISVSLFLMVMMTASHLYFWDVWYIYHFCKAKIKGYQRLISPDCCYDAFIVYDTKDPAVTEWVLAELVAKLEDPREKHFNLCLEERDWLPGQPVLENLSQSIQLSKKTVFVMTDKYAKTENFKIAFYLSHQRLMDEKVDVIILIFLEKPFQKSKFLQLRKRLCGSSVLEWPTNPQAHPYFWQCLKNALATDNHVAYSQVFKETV

Compound	pIC50 (human TLR7)	pIC50 (human TLR8; [1])	pIC50 (human TLR9; [2])	pIC50 (human TLR8; TLR8 IC50, HEK-Blue cells overexpressing human TLR8, R848 15.9 μM)	pIC50 (human TLR9; TLR9 IC50, HEK-Blue cells overexpressing human TLR9, ODN2006 5 nM)
CCC(C)NCC(=O)N1CCC(c2ccc3[nH]c(-c4cc(C)nc(C)c4)c(C(C)C)c3c2)CC1 (stereo not drawn) [Example 392, 2-(sec-butylamino)-1-(4-(2-(2,6-dimethylpyridin-4-yl)-3-isopropyl-1H-indol-5-yl)piperidin-1-yl)ethan-1-one]	8.49	7.98	6.60	–	–
Cc1cc(-c2[nH]c3ccc(C4CCN(CC5COC5)CC4)cc3c2C(C)C)c(F)cn1 [Example 650, 2-(5-fluoro-2-methylpyridin-4-yl)-3-isopropyl-5-(1-(oxetan-3-ylmethyl)piperidin-4-yl)-1H-indole]	8.33	8.74	5.47	–	–
Cc1cc(-c2[nH]c3ccc(C4CCN(CC5CCNC5)CC4)cc3c2C(C)C)cc(C)n1 (stereo not drawn) [Example 466, 2-(2,6-dimethylpyridin-4-yl)-3-isopropyl-5-(1-(pyrrolidin-3-ylmethyl)piperidin-4-yl)-1H-indole]	8.19	8.43	6.56	–	–
COc1cc(-c2[nH]c3ccc(C4CCN(C5CCN(C)CC5)CC4)cc3c2C(C)C)ccn1 [Example 795, 3-isopropyl-2-(2-methoxypyridin-4-yl)-5-(1′-methyl-[1,4′-bipiperidin]-4-yl)-1H-indole]	6.89	7.90	6.07	–	–
Cc1cc(-c2[nH]c3ccc(C4CCNCC4)cc3c2C(C)C)c(C)cn1 [Example 31, 2-(2,5-dimethylpyridin-4-yl)-3-isopropyl-5-(piperidin-4-yl)-1H-indole]	8.59	9.00	6.02	–	–
CC(=O)N1CCC(c2ccc3[nH]c(-c4cc(C)nc(F)c4)c(C(C)C)c3c2)CC1 [Example 499, 1-(4-(2-(2-fluoro-6-methylpyridin-4-yl)-3-isopropyl-1H-indol-5-yl)piperidin-1-yl)ethan-1-one]	5.43	4.97	< 4.30	–	–
Cc1cc(-c2[nH]c3ccc(C4CCN(C(C)C(=O)N(C)C)CC4)cc3c2CC(F)F)cc(C)n1 (stereo not drawn) [Example 493, 2-(4-(3-(2,2-difluoroethyl)-2-(2,6-dimethylpyridin-4-yl)-1H-indol-5-yl)piperidin-1-yl)-N,N-dimethylpropanamide]	7.07	6.30	5.79	–	–
Cc1cc(-c2[nH]c3ccc(C4CCN(C(=O)C5CC(=O)N(C)C5)CC4)cc3c2C(C)C)cc(C)n1 (stereo not drawn) [Example 100, 4-(4-(2-(2,6-dimethylpyridin-4-yl)-3-isopropyl-1H-indol-5-yl)piperidine-1-carbonyl)-1-methylpyrrolidin-2-one]	8.10	–	–	7.20	4.65

More lines, now with the values ahead:

pIC50 (human TLR7)	pIC50 (human TLR8; [1])	pIC50 (human TLR9; [2])	pIC50 (human TLR8; TLR8 IC50, HEK-Blue cells overexpressing human TLR8, R848 15.9 μM)	pIC50 (human TLR9; TLR9 IC50, HEK-Blue cells overexpressing human TLR9, ODN2006 5 nM)	Compound
8.77	7.98	6.01	–	–	CNC(C)(C)C(=O)N1CCC(c2ccc3[nH]c(-c4cc(C)nc(C)c4)c(C(C)C)c3c2)CC1 [Example 187, 1-(4-(2-(2,6-dimethylpyridin-4-yl)-3-isopropyl-1H-indol-5-yl)piperidin-1-yl)-2-methyl-2-(methylamino)propan-1-one]
8.82	8.00	6.20	–	–	Cc1cc(-c2[nH]c3ccc(C4CCN(C(=O)CN(C)CCO)CC4)cc3c2C(C)C)cc(C)n1 [Example 420, 1-(4-(2-(2,6-dimethylpyridin-4-yl)-3-isopropyl-1H-indol-5-yl)piperidin-1-yl)-2-((2-hydroxyethyl)(methyl)amino)ethan-1-one]
8.80	8.02	6.55	–	–	Cc1cc(-c2[nH]c3ccc(C4CCN(C(=O)[C@@H]5C[C@@H](F)CN5)CC4)cc3c2C(C)C)cc(C)n1 [Example 190, (4-(2-(2,6-dimethylpyridin-4-yl)-3-isopropyl-1H-indol-5-yl)piperidin-1-yl)((2S,4R)-4-fluoropyrrolidin-2-yl)methanone]
8.68	7.89	6.01	–	–	Cc1cc(-c2[nH]c3ccc(C4CCN(C(=O)CN5CC[C@H](N)C5=O)CC4)cc3c2C(C)C)cc(C)n1 [Example 188, (S)-3-amino-1-(2-(4-(2-(2,6-dimethylpyridin-4-yl)-3-isopropyl-1H-indol-5-yl)piperidin-1-yl)-2-oxoethyl)pyrrolidin-2-one]
